Common to all, as to type: biochemical
In experiment [1] the test system is cytoplasm proteins. Description: Comparison of reactivity of acetyl group donors with cytoplasm proteins (western blotting, anti-acetylated lysine antibody). To be noted: acetyl group donor 1 mM, cytoplasm fraction 20%, room temperature, 10 hours; FIG. 1B. As for the experimental part: Approximately 10^6 cells were detached from a culture dish by a trypsin treatment. After washed with PBS, the cell pellets were suspended in a cooled, cell lysis buffer [50 mM Tris (pH 7.5), 300 mMNaCl, 0.3% Triton X-100, protease inhibitor cocktail, and 1 mM PMSF], and placed on ice for 30 minutes. After the centrifugation (4° C., 1500 rpm, 2 minutes), the supernatant was collected as a cytoplasm fraction.
(§1) Proteins were separated on a 4-20% SDS-PAGE gel, and transferred to a PVDF membrane, followed by blocking with 5% skim milk suspended in TBST for the reaction between the PVDF membrane and primary antibodies. The primary antibodies used were as follows.
(§2) Acetylated-lysine antibody (#9441, Cell Signaling), anti-acetyl Histone H4 (Lys77) (ABE186, Millipore), anti-acetyl Histone H2B (Lys120) (ab176430, Abcam), malonylated-lysine antibody (PTM-901, PTM Biolabs), glutarylated-lysine antibody (PTM-1151, PTM Biolabs), butyrylated-lysine antibody (PTM-301, PTM Biolabs), 2-hydroisobutyrylated antibody (PTM-801, PTM Biolabs), streptavidin-HRP (#3999S, Cell Signaling).
(§3) After washing with TBST, a secondary antibody (Anti-Rabbit IgG, HRP-linked, NA934V, GE) was reacted. The PVDF membrane was treated with a chemilluminescent detection reagent Luminata Forte Western HRP Substrate (Millipore), and the detection was performed using ImageQuant LAS 4000 (GE healthcare life sciences). […]
In general terms: A western blot detects proteins with antibodies after separation by electrophoresis.

In experiment [2] the target is T1, histones (reconstituted nucleosome) (Homo sapiens, UniProt P04908+P06899+P62805+P68431).
T1 construct: made in house
The experiment can be described thus: Protein selective acetylation of reconstituted nucleosome mixed with cytoplasm fraction (western blotting, acetylated lysine antibody). The conditions noted are these: reconstituted nucleosome + cytoplasm fraction 15%, Ligand-DSH 2 to 5 μM, acyl donor 1 mM, TCEP 100 μM, room temperature, 5 hours; FIG. 3A.
Excerpt: as §1, §2
(§4) After washing with TBST, a secondary antibody (Anti-Rabbit IgG, HRP-linked, NA934V, GE) was reacted. The PVDF membrane was treated with a chemilluminescent detection reagent Luminata Forte Western HRP Substrate (Millipore), and the detection was performed using ImageQuant LAS 4000 (GE healthcare life sciences).
(§5) A buffer solution (20 mM Tris-HCl, pH 7.5) containing a reconstituted nucleosome (33 μg/mL 601 DNA) and a cytoplasm fraction (15%) was added with Ligand-DSH (2 to 5 μM), acyl CoA (1 mM), and TCEP (100 μM), followed by reaction at room temperature for 5 hours. Thereafter, western blotting was performed.
First, protein selectivity was evaluated. A reconstituted nucleosome prepared in accordance with a known method (Tachiwana, H. et al., Proceedings of the National Academy of Sciences of the United States of America 2010, 107, 10454-10459) and cytoplasm fractions acquired from living cells were mixed. Then, evaluation was carried out on whether or not the newly developed catalyst could selectively acetylate histones by western blotting using an acetylation lysine antibody (FIG. 3A).

Experiment [3] addresses T2, reconstituted nucleosome (H2BK120, H4K77) (Homo sapiens, UniProt P04908+P06899+P62805+P68431).
T2 construct: made in house
The experiment can be described thus: Lysine residue selective acetylation of reconstituted nucleosome (western blotting, residue-selective acetylated lysine antibodies). The conditions noted are these: with acetyl CoA, FIG. 3B.
Excerpt: as §1, §2, §3
Next, the selectivity of lysine residues in histones was evaluated. A similar reaction was evaluated by western blotting using a residue-selective acetylation lysine antibody.

Experiment [4] has as its target T3, reconstituted nucleosome (Homo sapiens, UniProt P04908+P06899+P62805+P68431).
T3 construct: made in house
Description: Yield determination by LC-MS/MS and exhaustive analysis of lysine residue selectivity. To be noted: for lysine residue selectivity: acetylation of reconstituted nucleosome, FIGS. 5 and 6. As to the method:
Cooled trichloroacetic acid (30 μL) was added, and the resultant was placed on ice for 30 minutes. After the centrifugation (4° C., 15000 rpm, 5 minutes), the supernatant was removed. After further centrifugation (4° C., 15000 rpm, 1 minute), the supernatant was again removed. Cooled acetone (450 μL) was added. After the centrifugation (4° C., 15000 rpm, 5 minutes), the supernatant was removed. After further centrifugation (4° C., 15000 rpm, 1 minute), the supernatant was again removed. The above procedure was repeated once more. […] A 1M sulfuric acid (25 μL) was added and placed on ice for 1 hour, followed by centrifugation (4° C., 15000 rpm, 5 minutes), and the supernatant was collected. Centrifugation (4° C., 15000 rpm, 1 minute) was performed again to collect the supernatant to combine with the earlier supernatant. The resultant was added with acetone (500 μL), followed by sufficient stirring, and was placed overnight at −30° C. After the centrifugation (4° C., 15000 rpm, 5 minutes), the supernatant was removed. After further centrifugation (4° C., 15000 rpm, 1 minute), the supernatant was again removed. After drying was performed with a centrifugal evaporator for 10 minutes, an aqueous solution of ammonium bicarbonate (0.1 M, 20 μL) was added. The resultant was added with a mixture of propionic anhydride and methanol (1:3, 20 μL) prepared immediately before, further added with ammonia water (15 μL), and was placed at room temperature for 30 minutes. Drying was performed with a centrifugal evaporator for 75 minutes, followed by treatment with a digestive enzyme.
In the case of trypsin: an aqueous solution of ammonium bicarbonate (0.1M, 50 μL) and trypsin (1 μg) were added, followed by reaction at 37° C. for 21 hours.
In the case of chymotrypsin: 100 mM Tris-HCl, 10 mM CaCl2 (50 μL, pH8.0), and chymotrypsin (8 μg) were added, followed by reaction at 25° C. for 21 hours.
A 5% aqueous solution of formic acid (25 μL) was added, followed by drying with a centrifugal evaporator for 75 minutes. The residue was dissolved in a 0.1% aqueous solution of formic acid (15 μL), and the resultant was used for LC-MS/MS.
Eksigent ekspert™ MicroLC 200
ESI-Q-TOF MS, positive-ion mode.
Precursor ions are designated, and for each of the precursor ions, 2 to 4 MS/MS fragment ions having the highest strength were selected. Ion extraction (±0.5 Da) was performed for the designated precursor ions and the MS/MS fragment ions, and the yield was calculated in accordance with the equation below.
For a chromatogram obtained by performing measurement in an Information Dependent Acquisition Mode, the yield was determined in accordance with the following equation from the peak area subjected to ion extraction (±0.5 Da) after designating the precursor ions. yield (%)=[A/A+P]×100 (here, A represents a peak area of an acetylated peptide and P represents a peak area of a propionylated peptide)

Experiment [5] concerns the target T1, histones (reconstituted nucleosome). Description: Acylation other than acetylation with catalyst and various acyl CoA (western blotting). To be noted: catalyst with the corresponding acyl CoA; FIG. 9.
Excerpt: as §1, §2, §4, §5
In light of the above, a study was carried out on whether or not acylation other than acetylation would be possible using the developed catalyst.

The mark [6] stands for this setting: Ligand-DSH 2 μM, acetyl CoA 1 mM, TCEP 100 μM, 5 hours.

SMILES strings stand for the structures. Square brackets hold non-standard residues; d marks the D form. Peptide text beside a SMILES is read from it. * marks the point of attachment. ξ: configuration not given here. Thr(3ξ) = CC(O)[C@H](N)C(=O)O; X1 = CN(CCC(=O)*)c1ccnc(CS)c1; ξR = N=C(N)NCCCC(N)C(=O)O; ξS = NC(CO)C(=O)O

With `CC(=O)SCCNC(=O)CCNC(=O)[C@H](O)C(C)(C)COP(=O)(O)OP(=O)(O)OC[C@H]1O[C@@H](n2cnc3c(N)ncnc32)[C@H](O)[C@@H]1OP(=O)(O)O` [acetyl CoA, reference compound], the “non-selective acetylation of cytoplasm proteins” value in experiment [1] is “did not cause such non-selective acetylation”. In addition, in experiment [2], the histone-selective acetylation result is on record as “acetylation did not proceed”.
In the case of `CON(C(C)=O)C(C)=O` [NMD, N-methoxydiacetamide], the “non-selective acetylation of cytoplasm proteins” value in experiment [1] is given as “non-selectively acetylated a large quantity of protein”.
Consider `CN(CCCNC(=O)CCN(C)c1ccnc(CS)c1)CCCNC(=O)c1cc(NC(=O)c2cc(NC(=O)c3cc(NC(=O)c4nc(NC(=O)CCCNC(=O)c5cc(NC(=O)c6cc(NC(=O)c7cc(NC(=O)c8nccn8C)cn7C)cn6C)cn5C)cn4C)cn3C)cn2C)cn1C` [PIP-DSH], for which the “acetylation of H4K77 (western blotting)” value in experiment [3] (anti-acetyl Histone H4 (Lys77)) was “strongly acetylated”. The histone-selective acetylation result in experiment [2] is on record as “histone-selective acetylation was achieved”. For the same molecule, in experiment [4] (setting [6]), the “acetylation yield of H3K36” value stood at 14%, the “acetylation yield of H3K56” value is 9% and the “acetylation yield of H4K77” value was 14%. The lysine residue selectivity entry in experiment [4] is “high”.
On to `CC(=O)NCCSC(C)=O`, for which the histone-selective acetylation result in experiment [2] was “histone-selective acetylation was observed in the same way”.
For the molecule `CSCC[C@H](NC(=O)CNC(=O)CCN(C)c1ccnc(CS)c1)C(=O)NC(CCCNC(=N)N)C(=O)N[C@@H](CC(C)C)C(=O)NC(CCCNC(=N)N)C(=O)N[C@@H](CO)C(=O)NCC(=O)N[C@@H](CCCNC(=N)N)C(=O)NC(CO)C(=O)N[C@H](C(=O)NCC(N)=O)C(C)O` (stereo partly shown) [LANA-DSH] (X1-GM[ξR]L[ξR]SGR[ξS][Thr(3ξ)]G-NH2), in experiment [5], the 2-hydroxy-iso-butyrylation result is given as “enabled”, the biotinylation entry was “enabled”, the butyrylation result is “enabled” and the glutarylation result is “enabled”. The malonylation entry in experiment [5] is listed as “enabled”. The “acetylation of H2BK120 (western blotting)” value in experiment [3] (anti-acetyl Histone H2B (Lys120)) is recorded as “strongly acetylated”. Also, the histone-selective acetylation entry in experiment [2] was “histone-selective acetylation was achieved”. The “acetylation yield of H2BK120” value in experiment [4] (setting [6]) is given as 54%. Moreover, in experiment [4], the lysine residue selectivity result is on record as “extremely high”.

The values are drawn from patent US11021461B2, “Artificial catalyst system for selective acylation of chromosome protein” (THE UNIVERSITY OF TOKYO, priority 2015, dated 2021).
